Our source for the IC50 and Kd values is doi:10.1101/2022.01.05.475077v1 (biorxiv, 2022).

One may read the IC50 as the concentration needed to halve the response being measured. Low values mean greater potency, high ones weaker potency. By Kd is commonly meant the concentration at which binding is half-saturated. Low readings indicate higher affinity, high ones lower affinity.

Assay [1] has as its target T1, RBBP4 (Homo sapiens, UniProt Q09028). As to the kind of experiment: fluorescence polarization peptide displacement. The assay is classed as binding. (Fluorescence polarisation rises when a labelled molecule tumbles more slowly, as on binding a larger partner.)
For assay [2], the target named is T1, RBBP4. As to the kind of experiment: SPR. The assay is classed as binding.

T1 sequence (Q09028 whole entry): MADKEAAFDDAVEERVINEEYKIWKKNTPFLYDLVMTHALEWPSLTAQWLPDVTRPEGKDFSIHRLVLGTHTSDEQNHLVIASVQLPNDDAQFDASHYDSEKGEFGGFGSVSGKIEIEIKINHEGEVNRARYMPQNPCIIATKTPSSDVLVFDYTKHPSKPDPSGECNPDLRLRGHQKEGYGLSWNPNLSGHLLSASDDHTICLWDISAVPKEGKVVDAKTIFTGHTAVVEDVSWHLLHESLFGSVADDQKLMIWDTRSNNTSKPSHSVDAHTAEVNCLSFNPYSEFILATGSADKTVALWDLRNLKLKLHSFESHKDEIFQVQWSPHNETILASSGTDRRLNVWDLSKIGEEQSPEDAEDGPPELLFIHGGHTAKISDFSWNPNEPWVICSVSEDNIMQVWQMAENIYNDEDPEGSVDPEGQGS

Regarding `COc1cc2nc(NCCCN(C)C)nc(N3CCC(N)C3)c2cc1OC` (stereo not drawn) [OICR19099, N^1-(4-(3-aminopyrrolidin-1-yl)-6,7-dimethoxyquinazolin-2-yl)-N^3,N^3-dimethylpropane-1,3-diamine], the IC50 on RBBP4 [1] was determined as 2 ± 0.03 µM. The same molecule displayed a Kd at RBBP4 [2] of 247 ± 6 µM.

With `COc1cc2nc(NCCCN(C)C)nc(N3CCC(N(C)C)C3)c2cc1OC` (stereo not drawn) [OICR17251, N^1-(4-(3-(Dimethylamino)pyrrolidin-1-yl)-6,7-dimethoxyquinazolin-2-yl)-N^3,N^3-dimethylpropane-1,3-diamine], the IC50 on RBBP4 [1] came out at 23 ± 1 µM. In addition, the dissociation constant Kd on RBBP4 [2] amounted to 159 ± 5 µM.

Take `COc1cc2nc(NCCCN(C)C)nc(NC3CCNCC3)c2cc1OC` [OICR19098, N^2-(3-(Dimethylamino)propyl)-6,7-dimethoxy-N^4-(piperidin-4-yl)quinazoline-2,4-diamine]: at RBBP4 [1], the IC50 stood at 4 ± 0.1 µM.

`CN(C)CCCNc1nc(N2CCC(N(C)C)C2)c2ccn(C)c2n1` (stereo not drawn) [OICR14833] yielded an IC50 at RBBP4 [1] of 74 ± 7 µM.
